Test results from ChEMBL document CHEMBL3792312, “Synthesis and docking studies of pyrazine-thiazolidinone hybrid scaffold targeting dormant tuberculosis” (Bioorg Med Chem Lett, 2016).
In brackets after ≈: the same amount, converted by molar mass.

Tests used:
Staphylococcus aureus [1] = assay: Antibacterial activity against Staphylococcus aureus at 10 ug after 12 hrs; format: functional
Pseudomonas fluorescens [2] = assay: Antibacterial activity against Pseudomonas fluorescens at 3 ug after 8 hrs; format: functional
[3] = test system: Mycolicibacterium smegmatis; assay: Antitubercular activity against dormant Mycobacterium smegmatis MC2 155 at 3 ug after 12 days by XTT-Menadione assay; format: functional, str. MC2 155
[4] = test system: Mycolicibacterium smegmatis; assay: Antitubercular activity against dormant Mycobacterium smegmatis MC2 155 at 10 ug after 12 days by XTT-Menadione assay; format: functional, str. MC2 155
[5] = test system: Mycolicibacterium smegmatis; assay: Antitubercular activity against dormant Mycobacterium smegmatis MC2 155 at 30 ug after 12 days by XTT-Menadione assay; format: functional, str. MC2 155
[6] = test system: Mycobacterium tuberculosis; assay: Antitubercular activity against dormant Mycobacterium tuberculosis H37Ra at 10 ug after 12 days by XTT-Menadione assay; format: functional
[7] = test system: Mycobacterium tuberculosis; assay: Antitubercular activity against dormant Mycobacterium tuberculosis H37Ra after 12 days by XTT-Menadione assay; format: functional, organism-based; conditions: 288 h
Escherichia coli [8] = assay: Antibacterial activity against Escherichia coli at 10 ug after 8 hrs; format: functional
[9] = test system: Mycobacterium tuberculosis; assay: Antitubercular activity against dormant Mycobacterium tuberculosis H37Ra at 3 ug after 12 days by XTT-Menadione assay; format: functional
Pseudomonas fluorescens [10] = assay: Antibacterial activity against Pseudomonas fluorescens at 30 ug after 8 hrs; format: functional
[11] = test system: Mycobacterium tuberculosis; assay: Antitubercular activity against dormant Mycobacterium tuberculosis H37Ra at 30 ug after 12 days by XTT-Menadione assay; format: functional
Escherichia coli [12] = assay: Antibacterial activity against Escherichia coli at 30 ug after 8 hrs; format: functional
A549 = assay: (§1) Cytotoxicity against human A549 cells after 3 days by MTT assay; format: cell-based; conditions: Homo sapiens, A549, 72 h
[13] = as §1; format: cell-based; conditions: human, A549 cells; read-out: MIC
Staphylococcus aureus [14] = assay: Antibacterial activity against Staphylococcus aureus at 3 ug after 12 hrs; format: functional
Escherichia coli [15] = assay: Antibacterial activity against Escherichia coli at 3 ug after 8 hrs; format: functional
Staphylococcus aureus [16] = assay: Antibacterial activity against Staphylococcus aureus at 30 ug after 12 hrs; format: functional
[17] = Cytotoxicity against human THP1 cells after 5 days by MTT assay; format: cell-based, THP-1; conditions: for IC50: Homo sapiens, THP-1, 120 h; for MCC at 120 h: human, THP1 cells, read-out: MIC
[18] = Cytotoxicity against human PANC1 cells after 5 days by MTT assay; format: cell-based, PANC-1; conditions: for IC50: Homo sapiens, PANC-1, 120 h; for MCC at 120 h: human, PANC1 cells, read-out: MIC
MCF7 = assay: (§2) Cytotoxicity against human MCF7 cells after 4 days by MTT assay; format: cell-based; conditions: Homo sapiens, MCF7, 96 h
[19] = as §2; format: cell-based; conditions: human, MCF7 cells; read-out: MIC
Bacillus subtilis [20] = assay: Antibacterial activity against Bacillus subtilis at 30 ug after 12 hrs; format: functional
Bacillus subtilis [21] = assay: Antibacterial activity against Bacillus subtilis at 10 ug after 12 hrs; format: functional
Pseudomonas fluorescens [22] = assay: Antibacterial activity against Pseudomonas fluorescens at 10 ug after 8 hrs; format: functional
Bacillus subtilis [23] = assay: Antibacterial activity against Bacillus subtilis at 3 ug after 12 hrs; format: functional

Row | SMILES | inhibition (INH) (Staphylococcus aureus [1]) | inhibition (INH) (Pseudomonas fluorescens [2]) | inhibition (INH) [3] | inhibition (INH) [4] | inhibition (INH) [5] | inhibition (INH) [6] | IC50 [7] | MIC [7] | inhibition (INH) (Escherichia coli [8]) | inhibition (INH) [9] | inhibition (INH) (Pseudomonas fluorescens [10]) | inhibition (INH) [11] | inhibition (INH) (Escherichia coli [12]) | IC50 (A549) | MCC at 72 h [13] | inhibition (INH) (Staphylococcus aureus [14]) | inhibition (INH) (Escherichia coli [15]) | inhibition (INH) (Staphylococcus aureus [16]) | IC50 [17] | MCC at 120 h [17] | also measured
1 | Cc1cnc(C(=O)NN2C(=O)CS[C@H]2c2ccc(N(C)C)cc2)cn1 | 27.85% | 12.03% | -19.7482% | 9.803% | 23.39% | 65.91% | 2.31 µg/mL (≈ 6.46 µM) | 28.4 µg/mL (≈ 79.5 µM) | 28.08% | 60.23% | 21.18% | 91.72% | 46.74% | > 100 µg/mL | > 100 µg/mL | 34.87% | 35.59% | 22.9% | > 100 µg/mL | > 100 µg/mL | IC50 [18]: > 100 µg/mL; MCC at 120 h [18]: > 100 µg/mL; IC50 (MCF7): > 100 µg/mL; MCC at 96 h [19]: > 100 µg/mL; inhibition (INH) (Bacillus subtilis [20]): 3.26%; inhibition (INH) (Bacillus subtilis [21]): 2.71%; inhibition (INH) (Pseudomonas fluorescens [22]): 29.04%; inhibition (INH) (Bacillus subtilis [23]): 5.9%
2 | O=C(NN1C(=O)CS[C@@H]1c1ccc(Cl)cc1)c1cnccn1 | 12.54% | 8.12% | 41.55% | -6.521% | -1.593% | 66.53% | 1.09 µg/mL (≈ 3.26 µM) | 28.8 µg/mL (≈ 86.1 µM) | 38.71% | 66.68% | 14.72% | 91.2% | 51.04% | > 100 µg/mL | > 100 µg/mL | 8.74% | -35.07% | -47.91% | > 100 µg/mL | > 100 µg/mL | IC50 [18]: > 100 µg/mL; MCC at 120 h [18]: > 100 µg/mL; IC50 (MCF7): > 100 µg/mL; MCC at 96 h [19]: > 100 µg/mL; inhibition (INH) (Bacillus subtilis [20]): 17.44%; inhibition (INH) (Bacillus subtilis [21]): 9.6%; inhibition (INH) (Pseudomonas fluorescens [22]): 3.658%; inhibition (INH) (Bacillus subtilis [23]): -13.1%
3 | CCOc1cc([C@@H]2SCC(=O)N2NC(=O)c2cnc(C)cn2)ccc1O | -12.53% | 12.73% | 1.412% | 28.89% | 7.269% | 86.08% | 0.337 µg/mL (≈ 0.9 µM) | 26.6 µg/mL (≈ 70.9 µM) | 16.57% | 78.71% | 11.17% | 90.6% | 29.15% | > 100 µg/mL | > 100 µg/mL | -16.05% | -27.76% | 32.72% | > 100 µg/mL | > 100 µg/mL | IC50 [18]: > 100 µg/mL; MCC at 120 h [18]: > 100 µg/mL; IC50 (MCF7): > 100 µg/mL; MCC at 96 h [19]: > 100 µg/mL; inhibition (INH) (Bacillus subtilis [20]): 16.07%; inhibition (INH) (Bacillus subtilis [21]): 15.08%; inhibition (INH) (Pseudomonas fluorescens [22]): 12.75%; inhibition (INH) (Bacillus subtilis [23]): 21.36%
4 | COc1cc([C@@H]2SCC(=O)N2NC(=O)c2cnc(C)cn2)ccc1O | 23.58% | -2.64% | -19.102% | 33.4% | -19.0256% | 70.7% | 0.997 µg/mL (≈ 2.77 µM) | 27.9 µg/mL (≈ 77.3 µM) | -54.14% | 66.03% | 47.41% | 91.2% | -53.27% | 62.3 µg/mL (≈ 173 µM) | > 100 µg/mL | 42.47% | 33.04% | -0.17% | 86.9 µg/mL (≈ 241 µM) | > 100 µg/mL | IC50 [18]: > 100 µg/mL; MCC at 120 h [18]: > 100 µg/mL; IC50 (MCF7): 70.2 µg/mL (≈ 195 µM); MCC at 96 h [19]: > 100 µg/mL; inhibition (INH) (Bacillus subtilis [20]): 19.67%; inhibition (INH) (Bacillus subtilis [21]): 8.59%; inhibition (INH) (Pseudomonas fluorescens [22]): 33.16%; inhibition (INH) (Bacillus subtilis [23]): 14.34%
5 | Cc1cnc(C(=O)NN2C(=O)CS[C@@H]2c2cccc([N+](=O)[O-])c2)cn1 | 33.4% | 20.43% | 57.26% | 20.19% | 19.6% | 56.26% | 4.29 µg/mL (≈ 11.9 µM) | 29 µg/mL (≈ 80.7 µM) | 53.08% | 48.93% | 42.75% | 91.39% | 70.21% | > 100 µg/mL | > 100 µg/mL | -1.03% | 47.15% | 17.56% | > 100 µg/mL | > 100 µg/mL | IC50 [18]: > 100 µg/mL; MCC at 120 h [18]: > 100 µg/mL; IC50 (MCF7): > 100 µg/mL; MCC at 96 h [19]: > 100 µg/mL; inhibition (INH) (Bacillus subtilis [20]): 4.11%; inhibition (INH) (Bacillus subtilis [21]): 0.21%; inhibition (INH) (Pseudomonas fluorescens [22]): 33.6%; inhibition (INH) (Bacillus subtilis [23]): 3.26%
6 | Cc1cnc(C(=O)NN2C(=O)CS[C@@H]2c2ccc([N+](=O)[O-])cc2)cn1 | -8.13% | 26.73% | 57.99% | 42.01% | 10.44% | 73.66% | 0.528 µg/mL (≈ 1.47 µM) | 27.5 µg/mL (≈ 76.6 µM) | 37.74% | 72.31% | 22.82% | 91.72% | 62.08% | > 100 µg/mL | > 100 µg/mL | 9.39% | 56.92% | 13.12% | > 100 µg/mL | > 100 µg/mL | IC50 [18]: > 100 µg/mL; MCC at 120 h [18]: > 100 µg/mL; IC50 (MCF7): > 100 µg/mL; MCC at 96 h [19]: > 100 µg/mL; inhibition (INH) (Bacillus subtilis [20]): 13.11%; inhibition (INH) (Bacillus subtilis [21]): 22.68%; inhibition (INH) (Pseudomonas fluorescens [22]): 7.48%; inhibition (INH) (Bacillus subtilis [23]): 21.45%
